Experimental data: US11001572B2, “Pyrimidine derivative, method for preparing same and use thereof in medicine” (Zhejiang Hisun Pharmaceutical Co., Ltd., priority 2016, dated 2021)

How the values were obtained:
[1] = Body weight and weight loss rate of Huh7 tumor-bearing mice during administration; type: in vivo, BALB/c nude mice; details: 25 mg/kg (IP, bid), 50 mg/kg (IP, bid) and 300 mg/kg (PO, bid); within 22 days
Procedure: (§1) Each group of animals was administrated (intraperitoneal injection (ip) or oral administration (po)) a test substance twice a day (bid) at a fix time per day according to the body weight of the animals. The first dose was administered on the day of grouping ([…]), and continued for 22 days, the body weight of the animals was recorded daily.
The calculation formula for the weight loss rate of animals is (see FIG. 3 for the results): Weight loss rate of animals=100%×(BWinitial−BWt)/BWinitial
wherein, BWt represents the body weight of the animal at each measurement during administration; BWinitial represents the body weight of the animal at the time of grouping administration.

[2] = tested on: Huh7 tumor-bearing BALB/c nude mice xenografts; assay: Growth inhibition of Huh7 xenografts in BALB/c nude mice; type: in vivo; details: 25 mg/kg IP, bid
Procedure: On day 0, Huh7 cells were cultured in DMEM medium containing 10% of fetal bovine serum, 100 U of penicillin, and 100 μg/mL of streptomycin. And cultured in an incubator of 37° C., 5% CO2.
Each mouse was inoculated subcutaneously in the right axilla with 150 μL of cell suspension (5.0×10^6 cells/mouse) under sterile conditions. On day 12 after inoculation, when the tumor grew to a volume of 200-300 mm^3, mice with similar tumor volume and good shape were selected (the shape was as single spherical as possible, no irregular shape or multiple tumors gathered together) and divided into 5 groups, each group had 9 mice.
as §1
The formation of tumor in the inoculated part of each group of animals was observed. The long diameter (Y) and short diameter (X) of the tumor nodules were measured twice a week using vernier calipers and calculated according to the following formula: Volume of tumor nodules(V):V=(X^2Y)/2.
Evaluation index of antitumor activity: tumor growth inhibition rate TGI (%), relative tumor proliferation rate T/C (%).
The relative tumor volume (RTV) is calculated as: RTV=100×TVt/TVinitial
The calculation formula for the relative tumor proliferation rate (% T/C) is: % T/C=100%×(RTVT/RTVC)

SMILES | body weight change [1] | Tumor growth inhibition rate (TGI %) ([2]; Day 16 after inoculation) | Tumor growth inhibition rate (TGI %) ([2]; Day 20 after inoculation) | Tumor growth inhibition rate (TGI %) ([2]; Day 23 after inoculation) | Tumor growth inhibition rate (TGI %) ([2]; Day 27 after inoculation) | Tumor growth inhibition rate (TGI %) ([2]; Day 30 after inoculation) | Tumor growth inhibition rate (TGI %) ([2]; Day 34 after inoculation) | Tumor weight inhibition rate (%) ([2]; end of the experiment)
C=CC(=O)Nc1cc(N2CCN(CC)C3(CC3)C2)ccc1Nc1cc(N(C)C(=O)Nc2c(Cl)c(OC)cc(OC)c2Cl)ncn1 [Example 5, N-(2-((6-(3-(2,6-Dichloro-3,5-dimethoxyphenyl)-1-methylureido)pyrimidin-4-yl)amino)-5-(4-ethyl-4,7-diazaspiro[2.5]octan-7-yl)phenyl)acrylamide] | no significant body weight change |  |  |  |  |  |  | 
C=CC(=O)Nc1cc(N2CCN(CC)CC2)ccc1Nc1cc(N(C)C(=O)Nc2c(Cl)c(OC)cc(OC)c2Cl)ncn1 [Example 108 of WO2015057938] |  | 34% | 21% | 21% | 29% | 24% | 16% | 2.2%
